Test results as given in patent US9187411B2, “Leukotriene B4 antagonist compound” (Eli Lilly and Company, priority 2012, dated 2015).

What was measured:
[1] = test system: LTB4-induced phosphorylation of ERK in monocytes; assay: Mouse pERK assay in whole blood; assay type: cell-based, 129SvEv mice; conditions: Monocyte, 20 nM LTB4
Description: The ability of the compound of Example 2 to block LTB4-induced signaling through BLT1 was assessed in whole blood obtained from healthy human volunteers and from 129SvEv mice that are the model strain for preclinical AAA efficacy evaluation.
Whole blood is collected from 129SvEv mice in 50 mM EDTA (Gibco). For in vitro experiments, 10 point dose response curves of test compounds are assayed at final concentrations of 20 nM-10 μM. 10 point ½ serial dilutions of compound at 1000× of final assayed concentration are prepared in DMSO. Compound is then diluted to 10× in DPBS (DMSO concentration is now 1%). 10 μL of compound dilutions (at 10× diluted in DPBS) or 1% DMSO in DPBS are added to wells of a 96 deep well plate. 80 μL whole blood is added and incubated for 20 min at room temperature (10 μL of anti-mouse LY6G-FITC antibody (BD Pharmingen) and 10 μl of anti-mouse CD11b-APC BD Biosciences at 1 μg/mL final concentrations are added for final 10 min) 11 μL of 10× pre-warmed LTB4 (final concentration 20 nM) is added and incubated at 37° C. for 2 min. Reaction is stopped with 1.5 mL of 1× Phosflow Lyse/Fix from BD Biosciences (pre-warmed to 37° C.). The plate is sealed, vortexed, and incubated at 37° C. for 10 min. Cells are washed once with 1.5 mL DPBS then permeablized with 1 mL BD Perm/Wash buffer (BD Biosciences) for 10 min at room temperature. […]

[2] = Exposure (AUC) in the LDLr KO mouse atherosclerosis study; conditions: male, LDLr KO (JAX #002207), in vivo, LDLr KO mice
Source text: LDLr KO mice (JAX #002207), 7 week old males, were obtained from The Jackson Laboratory (Bar Harbor, Me.). Upon arrival at the testing facility and continuing for a total of 10 weeks, mice were housed individually and fed the atherogenic diet TD.88137 (Teklad) ad libitum. During the first 6 weeks, the mice rested undisturbed in their cages. During the last 4 weeks, the mice received the test compound twice daily by oral gavage.

CCCc1c(NC(=O)CC(C)(C)C(=O)[O-])cccc1OCCCOc1cc(O)c(-c2ccc(F)cc2)cc1CC.[Na+] [Example 2, Sodium 4-[[3-[3-[2-ethyl-4-(4-fluorophenyl)-5-hydroxy-phenoxy]propoxy]-2-propyl-phenyl]amino]-2,2-dimethyl-4-oxo-butanoate]
IC50 [1]: 0.243 µM
AUC ([2]; 3 mg/kg BID oral gavage): 1110 ng·h/mL
AUC ([2]; 10 mg/kg BID oral gavage): 5380 ng·h/mL
AUC ([2]; 30 mg/kg BID oral gavage): 12800 ng·h/mL
